Source: patent US12497614B2, “Compositions and methods for editing beta-globin for treatment of hemaglobinopathies” (Vertex Pharmaceuticals Incorporated, priority 2020, dated 2025)

How the values were obtained:
[1] = system: human HBB gene locus in CD34+ HSPCs; assay: In vitro editing of HBB in CD34+ HSPCs with RNP and AAV donor template; HDR and INDELs by NGS (Example 1); assay type: cell-based; conditions: T107 RNP+AAV.320 with i53 (1 μg mRNA)
Description: Gene-editing of HBB was evaluated in CD34+ HSPCs. […] HSPCs were maintained in culture media containing IL-3 and were incubated at 37° C. under atmospheric conditions containing 5% carbon dioxide and 4% oxygen. […] To perform gene-editing, the cells were electroporated with RNP. Specifically, 1×10^6 cells were electroporated using the Maxcyte HSC-3 program with RNP containing 20 μg SpCas9 and 20 μg sgRNA (T107 or R02). AAV donor template was administered to cells prior to electroporation. Specifically, the cells were incubated with AAV (AAV.320 or AAV.323 respectively) at a dose of 10,000 MOI for one hour prior to electroporation.
Given efficiency of HDR repair is poor due to competition with other repair pathways (e.g., the NHEJ pathway), particularly in non-dividing or slowly dividing cells such as HSPCs, editing was also evaluated following treatment with molecules that inhibit targets in the NHEJ pathway, including 53BP1 and DNA-PK. […]
To evaluate HDR editing efficiency, genomic DNA was harvested from treated cells, and the frequency of the HBB allele encoding the expected gene edit (i.e., GAA encoding glutamate at position 6 downstream the HBB start codon (“E6”) for cells transduced with AAV.323 and silent mutations for cells transduced with AAV.320) was evaluated using a PCR amplification-based assay followed by next-generating sequencing (NGS). […]

CD34+ HSPCs = assay: Erythrocyte functionality: enucleation and cell-surface markers by flow cytometry (Example 5); assay type: cell-based, human; conditions: T107 RNP+AAV.310 alone or combined with the inhibitor
Description: Following editing, cells were differentiated to erythrocytes.
The ability of edited cells to differentiate to functional erythrocytes was assessed by determining expression of erythrocyte-associated cell surface markers and enucleation using flow cytometry on day 12 and 18 post editing. Briefly, 4×10^5 cells were obtained, and half were stained for erythrocyte cell-surface markers and half were used for detection of enucleation. For staining cell-surface markers, the cells were incubated in PBS containing 1% human serum albumin (PBS-A) and an antibody cocktail of anti-CD233(BRIC6-Band3)-FITC, anti-CD71-PE, anti-CD235a(GlyA)-PE/Cy7, and anti-CD49d (α4)-VioBlue. For detection of enucleation, 2 drops of NucRed nuclear staining reagent was added to 1 mL PBS-A, and 100 μL was added to plated cells. Following incubation, both cell samples were labeled with Sytox Blue solution (1:1000 dilution in PBS-A) for live/dead analysis. Samples were then assessed by flow cytometry

HBB locus in CD34+ HSPCs = assay: In vitro editing of HBB in CD34+ HSPCs with T223 RNP and AAV.321 (Example 9); assay type: cell-based, human; conditions: T223 RNP+AAV.321-edited cells treated with i53
Description: Gene-editing of HBB was evaluated using CD34+ HSPCs that were derived and maintained in culture as described in Example 1. HSPCs were subjected to gene-editing following two days of culture. To perform gene-editing, the cells were electroporated with RNP. Specifically, 5×10^6 cells were electroporated using the Maxcyte Buffer/HSC-3 program with RNP containing 20 μg SpCas9 and 20 μg sgRNA (T223 or R02). Cells were transfected with corresponding AAV donor template at a dose of 10,000 MOI (AAV.321 or AAV.323 respectively). The effect of 53BP1 inhibition and DNA-PK inhibitions on editing with RNP+AAV was also evaluated by treating cells with […] or 1 μg i53 mRNA+1 μM Nu7441.
The cells were cultured for two days following electroporation and prior to evaluation of editing efficiency. To evaluate editing efficiency, genomic DNA was harvested from edited cells, and frequency of HDR and frequency of INDELs at the predicted gRNA cut site was evaluated as described in Example 1.

[2] = system: HBB gene locus and mRNA transcribed from HBB in CD34+ HSPCs; assay: Editing efficiency in genomic DNA and in HBB mRNA (Example 5); assay type: cell-based, human; conditions: genomic DNA, 48 hours post electroporation; 1 μM or 3 μM
Description: At 48 hours post electroporation genomic DNA was isolated from the edited cells and HDR to introduce the sickle mutation and INDEL frequencies were evaluated using next gene sequencing and computational analysis. On day 10 of differentiation, incorporation of the SCD mutation and frequency of INDELs present in mRNA transcribed from the HBB gene locus of edited cells was determined using RNA amplicon sequencing.

[3] = Engraftment and persistence of gene-editing after in vivo administration of CD34+ HSPCs edited with T107 RNP, AAV.310 and Compound 984 (Example 14); parameters: species or system mouse; conditions: T107 RNP+AAV.310 in the presence of Compound 984 (3 μM)
Description: (§1) The cells were electroporated and immediately plated in medium only or medium containing Compound 984 at 3 μM. […] Genomic DNA was harvested from edited cells and used to evaluate HDR efficiency by […] as described in Example 1.
(§2) Following two days of in vitro culture, HSPCs were administered by intravenous injection to NBSGW mice at a dose of 0.5×10^6 cells per mouse. Recipient mice were treated with sublethal irradiation (100 cGy) at 1 day prior to administration of HSPCs. […] In total three independent replicates of the study were performed.
(§3) Bone marrow and peripheral blood was extracted at 16 weeks following HSPC administration and evaluated for presence of human hematopoietic cells using flow cytometry as described in Example 2. The percent chimerism (percentage of human CD45+ cells relative total cells expressing human CD45 or mouse CD45) in mouse bone marrow and peripheral blood is respectively shown in FIGS. 14A-14B.
(§4) Additionally, the lineage of human CD45+ cells was determined using markers for human B cells, T cells, myeloid cells, and HSPCs as described in Example 2.
(§5) The long term persistence of edits in the HBB gene present in HSPCs administered to each mouse cohorts was evaluated in genomic DNA extracted from bone marrow collected at 16 weeks. The frequency of donor template-encoded gene-edits in the HBB gene incorporated by HDR was quantified by NGS and is shown in FIG. 14D. […]

NBSGW mice = assay: as above; parameters: species or system mouse; conditions: 16 weeks; T107 RNP+AAV.310 in the presence of Compound 984
Description: as §1, §2, §3, §4, §5

| Compound | HDR efficiency (donor-template-encoded gene-edit in HBB) [1] | levels of enucleation vs control cells (CD34+ HSPCs) | frequency of INDELs at the T223 cut site (HBB locus in CD34+ HSPCs) | frequency of genomic DNA incorporating the E6V gene-edit (HBB locus in CD34+ HSPCs) | frequency of INDELs at the T107 cut site compared to cells edited with T107 RNP+AAV.310 only [2] | level of HDR repair compared to cells edited with T107 RNP+AAV.310 only [2] | frequency of gene-edits (HDR) in CD34+ HSPCs prior to transplantation [3] | frequency of gene-edits in mouse bone marrow vs CD34+ HSPCs prior to transplantation (NBSGW mice) |
| --- | --- | --- | --- | --- | --- | --- | --- | --- |
| i53: polypeptide inhibitor of 53BP1 (SEQ ID NO: 11), introduced as an mRNA-encoded protein (ORF SEQ ID NO: 10) | approximately 25% | comparable | reduced | improved |  |  |  |  |
| [2H]c1nc(C)nc([2H])c1-c1cc(NC[C@@H](C)c2cccc3c(C(=O)NC)ccnc23)ncn1 [Compound 984] |  | comparable |  |  | decreased | increased | approximately 45% | comparable |
